Experimental data from ChEMBL document CHEMBL1152872, “Discovery of N-{[1-(propylsulfonyl)-4-pyridin-2-ylpiperidin-4-yl]methyl}benzamides as novel, selective and potent GlyT1 inhibitors” (Bioorg Med Chem Lett, 2009).

Key:
[1] = target: T1, Sodium- and chloride-dependent glycine transporter 1 (Homo sapiens, UniProt P48067); assay: Inhibition of human glycine transporter 1
T1 sequence (P48067 whole entry): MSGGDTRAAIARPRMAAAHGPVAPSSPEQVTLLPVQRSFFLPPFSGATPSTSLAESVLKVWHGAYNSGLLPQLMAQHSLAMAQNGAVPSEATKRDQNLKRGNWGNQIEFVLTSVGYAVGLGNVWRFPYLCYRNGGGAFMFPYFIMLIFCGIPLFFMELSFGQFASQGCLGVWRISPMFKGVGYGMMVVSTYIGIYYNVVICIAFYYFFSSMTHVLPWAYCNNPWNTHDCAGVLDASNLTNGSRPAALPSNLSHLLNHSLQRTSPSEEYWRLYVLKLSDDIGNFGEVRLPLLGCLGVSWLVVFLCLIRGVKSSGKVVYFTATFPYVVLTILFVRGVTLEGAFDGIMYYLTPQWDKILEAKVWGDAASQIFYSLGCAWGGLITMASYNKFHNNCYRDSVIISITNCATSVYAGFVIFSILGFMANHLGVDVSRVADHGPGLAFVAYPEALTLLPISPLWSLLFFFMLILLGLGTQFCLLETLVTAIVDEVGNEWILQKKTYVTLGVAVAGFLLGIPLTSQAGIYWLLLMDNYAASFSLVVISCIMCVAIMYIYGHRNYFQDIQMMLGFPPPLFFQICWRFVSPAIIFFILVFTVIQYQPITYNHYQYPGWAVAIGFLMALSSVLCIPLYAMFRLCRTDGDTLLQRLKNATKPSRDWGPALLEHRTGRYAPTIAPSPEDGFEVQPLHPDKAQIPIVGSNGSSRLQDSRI

[2] = target: T2, Sodium- and chloride-dependent glycine transporter 2 (Homo sapiens, UniProt Q9Y345); assay: Inhibition of glycine transporter 2
T2 sequence (Q9Y345 whole entry): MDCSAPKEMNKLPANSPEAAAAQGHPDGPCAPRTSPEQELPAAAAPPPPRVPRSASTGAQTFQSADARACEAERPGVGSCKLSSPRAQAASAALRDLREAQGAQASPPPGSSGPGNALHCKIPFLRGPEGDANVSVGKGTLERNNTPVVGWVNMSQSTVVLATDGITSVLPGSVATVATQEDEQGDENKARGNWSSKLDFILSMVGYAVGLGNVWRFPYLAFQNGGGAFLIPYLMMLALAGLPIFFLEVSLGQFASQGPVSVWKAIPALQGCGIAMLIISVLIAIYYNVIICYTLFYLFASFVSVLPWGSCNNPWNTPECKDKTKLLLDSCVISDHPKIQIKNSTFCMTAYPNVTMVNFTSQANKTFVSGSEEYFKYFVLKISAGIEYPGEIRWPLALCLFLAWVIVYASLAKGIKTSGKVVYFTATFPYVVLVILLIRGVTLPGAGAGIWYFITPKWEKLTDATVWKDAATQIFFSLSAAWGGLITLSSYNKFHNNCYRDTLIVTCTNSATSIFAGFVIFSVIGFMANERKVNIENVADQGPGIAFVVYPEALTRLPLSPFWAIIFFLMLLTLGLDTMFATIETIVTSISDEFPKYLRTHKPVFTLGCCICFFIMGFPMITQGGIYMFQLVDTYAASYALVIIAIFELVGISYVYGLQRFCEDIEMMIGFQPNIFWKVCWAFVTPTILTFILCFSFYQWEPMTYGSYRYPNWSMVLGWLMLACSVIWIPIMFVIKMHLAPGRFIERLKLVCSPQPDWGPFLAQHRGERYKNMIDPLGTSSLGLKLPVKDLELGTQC

[3] = target: T3, Sodium- and chloride-dependent taurine transporter (Homo sapiens, UniProt P31641); assay: Inhibition of taurine transporter; format: single protein
T3 sequence (P31641 whole entry): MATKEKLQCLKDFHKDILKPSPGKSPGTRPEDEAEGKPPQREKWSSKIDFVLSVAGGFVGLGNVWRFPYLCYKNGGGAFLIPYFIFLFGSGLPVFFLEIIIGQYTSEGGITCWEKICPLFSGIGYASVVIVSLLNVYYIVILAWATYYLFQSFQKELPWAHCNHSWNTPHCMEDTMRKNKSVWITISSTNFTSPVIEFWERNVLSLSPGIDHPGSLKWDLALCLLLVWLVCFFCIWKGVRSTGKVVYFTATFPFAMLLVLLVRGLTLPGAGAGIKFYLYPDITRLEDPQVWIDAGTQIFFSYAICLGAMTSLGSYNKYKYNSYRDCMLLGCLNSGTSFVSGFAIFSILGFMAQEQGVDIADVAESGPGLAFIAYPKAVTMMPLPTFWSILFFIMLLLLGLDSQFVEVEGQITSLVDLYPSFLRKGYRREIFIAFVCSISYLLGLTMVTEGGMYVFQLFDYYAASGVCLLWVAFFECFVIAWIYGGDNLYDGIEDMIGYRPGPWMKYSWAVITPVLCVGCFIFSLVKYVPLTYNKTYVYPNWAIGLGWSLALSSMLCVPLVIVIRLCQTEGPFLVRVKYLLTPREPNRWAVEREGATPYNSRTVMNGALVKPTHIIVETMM

[4] = Solubility in water; format: physicochemical
[5] = target: T1, Sodium- and chloride-dependent glycine transporter 1; assay: Inhibition of glycine transporter 1 by HTS assay

Compound | IC50 [1] [nM] | IC50 [2] [nM] | IC50 [3] [nM] | solubility [4] [µg/mL] | IC50 [5] [nM]
CCCS(=O)(=O)N1CCC(CNC(=O)c2c(F)ccc(F)c2Cl)(c2ccccn2)CC1 | 5.7 | > 30000 | > 30000 | – | –
CCCS(=O)(=O)N1CCC(c2ccccn2)([C@@H](C)NC(=O)c2ccc(Cl)cc2Cl)CC1 | 661 | – | – | – | –
CCCS(=O)(=O)N1CCC(CNC(=O)c2ccc(Cl)cc2Cl)(c2ccncc2)CC1 | 79.3 | – | – | – | –
CCCS(=O)(=O)N1CCC(CNC(=O)c2ccccc2)(c2ccccn2)CC1 | 107 | > 30000 | > 30000 | – | –
CCCS(=O)(=O)N1CCC(CNC(=O)c2ccccc2OC(F)(F)F)(c2ccccn2)CC1 | 19.4 | > 30000 | > 30000 | – | –
CCCS(=O)(=O)N1CCC(c2ccccn2)([C@@H](C)NC(=O)c2ccccc2OC(F)(F)F)CC1 | 2590 | – | – | – | –
CCCS(=O)(=O)N1CCC(CNC(=O)c2ccc(Cl)cc2Cl)(c2ccccn2)CC1.Cl | – | – | – | 850 | –
CCCS(=O)(=O)N1CCC(CNC(=O)c2ccccc2OC)(c2ccccc2)CC1 | – | – | – | – | 130
CCCS(=O)(=O)N1CCC(CNC(=O)c2ccc(Cl)cc2Cl)(c2cccc(C)n2)CC1 | 2.5 | > 30000 | > 30000 | – | –
CCCS(=O)(=O)N1CCC(CNC(=O)c2ccc(Cl)cc2Cl)(c2cccnc2)CC1 | 69.3 | – | – | – | –
CCCS(=O)(=O)N1CCC(CNC(=O)c2ccccc2C(F)(F)F)(c2ccccn2)CC1 | 31.3 | > 30000 | > 30000 | – | –
CCCS(=O)(=O)N1CCC(CNC(=O)c2ccc(Cl)cc2)(c2ccccn2)CC1 | 103 | > 30000 | > 30000 | – | –
CCCS(=O)(=O)N1CCC(CNC(=O)c2ccc(Cl)cc2Cl)(C2CCCCN2C)CC1 (stereo unspecified) | 9.5 | – | – | – | –
CCCS(=O)(=O)N1CCC(CNC(=O)c2ccccc2Cl)(c2ccccn2)CC1 | 11.9 | > 30000 | > 30000 | – | –
CCCS(=O)(=O)N1CCC(CNC(=O)c2ccc(Cl)cc2Cl)(c2cccc(OC)n2)CC1 | 7.4 | > 30000 | > 30000 | – | –
CCCS(=O)(=O)N1CCC(c2ccccn2)([C@@H](C)NC(=O)c2cc(F)cc(F)c2Cl)CC1 | 576 | – | – | – | –
CCCS(=O)(=O)N1CCC(CNC(=O)c2c(Cl)ccc(Cl)c2F)(c2ccccn2)CC1.Cl | – | – | – | 570 | –
CCCS(=O)(=O)N1CCC(CNC(=O)c2ccccc2)(c2cccc(OC)n2)CC1 | 48.3 | > 30000 | > 30000 | – | –
CCCS(=O)(=O)N1CCC(CNC(=O)c2cc(F)cc(F)c2Cl)(C2CCCCN2C)CC1 (stereo unspecified) | 43.1 | – | – | – | –
CCCS(=O)(=O)N1CCC(CNC(=O)c2ccccc2Cl)(c2cccc(OC)n2)CC1 | 6.9 | > 30000 | > 30000 | – | –
CCCS(=O)(=O)N1CCC(c2ccccc2)([C@H](C)NC(=O)c2c(N)cccc2Cl)CC1 | – | – | – | – | 2.6
CCCS(=O)(=O)N1CCC(CNC(=O)c2ccc(Cl)cc2Cl)(c2ccccn2)CC1 | 4.4 | > 30000 | > 30000 | – | –

Compound | IC50 [1] [nM] | IC50 [2] [nM] | IC50 [3] [nM] | solubility [4] [µg/mL] | IC50 [5] [nM]
CCCS(=O)(=O)N1CCC(CNC(=O)c2ccccc2C)(C2CCCCN2C)CC1 (stereo unspecified) | 148 | – | – | – | –
CCCS(=O)(=O)N1CCC(CNC(=O)c2ccc(Cl)cc2Cl)(c2cc(C)ccn2)CC1 | 3.5 | > 30000 | > 30000 | – | –
CCCS(=O)(=O)N1CCC(CNC(=O)c2cccc(C)c2)(c2ccccn2)CC1 | 833 | > 30000 | > 30000 | – | –
CCCS(=O)(=O)N1CCC(CNC(=O)c2ccccc2)(C2CCCCN2C)CC1 (stereo unspecified) | 3310 | – | – | – | –
CCCS(=O)(=O)N1CCC(CNC(=O)c2c(N)cccc2Cl)(c2ccccn2)CC1 | 6.9 | > 30000 | > 30000 | – | –
CCCS(=O)(=O)N1CCC(CNC(=O)c2ccccc2)(c2cccc(N3CCOCC3)n2)CC1 | > 5000 | – | – | – | –
CCCS(=O)(=O)N1CCC(CNC(=O)c2ccccc2Cl)(c2cc(C)ccn2)CC1 | 38.3 | > 30000 | > 30000 | – | –
CCCS(=O)(=O)N1CCC(c2ccccn2)([C@H](C)NC(=O)c2ccc(Cl)cc2Cl)CC1 | 3 | > 30000 | > 30000 | – | –
CCCS(=O)(=O)N1CCC(CNC(=O)c2ccccc2Cl)(c2cccc(N3CCOCC3)n2)CC1 | 482 | – | – | – | –
CCCS(=O)(=O)N1CCC(CNC(=O)c2c(Cl)cccc2Cl)(c2ccccn2)CC1 | 6.6 | > 30000 | > 30000 | – | –
CCCS(=O)(=O)N1CCC(CNC(=O)c2cccc(Cl)c2)(c2ccccn2)CC1 | 517 | > 30000 | > 30000 | – | –
CCCS(=O)(=O)N1CCC(CNC(=O)c2ccc(Cl)c(Cl)c2)(c2ccccn2)CC1 | 131 | > 30000 | > 30000 | – | –
CCCS(=O)(=O)N1CCC(c2ccccn2)([C@H](C)NC(=O)c2ccccc2OC(F)(F)F)CC1 | 17.7 | > 30000 | > 30000 | – | –
CCCS(=O)(=O)N1CCC(CNC(=O)c2ccccc2)(c2cccc(C)n2)CC1 | 54.7 | > 30000 | > 30000 | – | –
CCCS(=O)(=O)N1CCC(CNC(=O)c2ccccc2OC(F)(F)F)(C2CCCCN2C)CC1 (stereo unspecified) | 21.2 | – | – | – | –
CCCS(=O)(=O)N1CCC(CNC(=O)c2ccccc2C)(c2ccccn2)CC1 | 19.5 | > 30000 | > 30000 | – | –
CCCS(=O)(=O)N1CCC(CNC(=O)c2ccccc2Cl)(c2cccc(C)n2)CC1 | 3 | > 30000 | > 30000 | – | –
CCCS(=O)(=O)N1CCC(CNC(=O)c2ccc(Cl)cc2Cl)(c2cccc(N3CCOCC3)n2)CC1 | 412 | – | – | – | –
CCCS(=O)(=O)N1CCC(CNC(=O)c2ccccc2F)(c2ccccn2)CC1 | 49.4 | > 30000 | > 30000 | – | –
CCCS(=O)(=O)N1CCC(c2ccccn2)([C@H](C)NC(=O)c2cc(F)cc(F)c2Cl)CC1 | 4 | > 30000 | > 30000 | – | –
CCCS(=O)(=O)N1CCC(CNC(=O)c2ccccc2)(c2cc(C)ccn2)CC1 | 129 | > 30000 | > 30000 | – | –
CCCS(=O)(=O)N1CCC(CNC(=O)c2ccccc2Cl)(C2CCCCN2C)CC1 (stereo unspecified) | 58.9 | – | – | – | –
